Source: patent US20200069775A1, “BRAIN OSTEOCALCIN RECEPTOR AND COGNITIVE DISORDERS” (The Trustees of Columbia University in the City of New York, priority 2017, published 2020)

Columns and labels:
[1] = test system: 12 and 16 month-old WT mice; assay: Peripheral osteocalcin delivery by mini-pumps in aging WT mice, DLT, EPMT, MWMT, NOR; format: in vivo, mouse; conditions: 30 or 90 ng/h peripherally via mini-pumps for 60 days
Protocol: For plasma injection experiments, 100 μl of plasma were injected 8 times during 24 days, via tail vein. Each group described is represented individually in each panel. For osteocalcin delivery in WT mice, pumps (Alzet micro-osmotic pump, Model 1002) delivering osteocalcin (30 ng/hr for 12 month-old and 90 ng/hr for 16 month-old mice), or vehicle, were surgically installed subcutaneously in the back of mice. For alendronate delivery to 3 month-old mice, intraperitoneal injections (40 μg/kg) were performed twice a week for 6 weeks. During the last 4 weeks of treatment and during behavioral testing, half of the alendronate-treated mice received 60 ng/hr osteocalcin by osmotic pump. […]
Elevated plus maze test (EPMT): This test takes advantage of the aversion of rodents to open spaces. […] The total number of arm entries and time spent in open arms is recorded. […]
Light to dark transition test: This test is based on the innate aversion of rodents to brightly illuminated areas and on their spontaneous exploratory behavior in response to the stressor that light represents. […] Mice were tested for 6 min and […] were recorded: (i) latency to enter the lit compartment, (ii) time spent in this compartment, an index of the anxiety-related behavior and (iii) number of transitions between compartments, an index of anxiety-related behavior as well as exploratory activity. […]

[2] = test system: mouse primary hindbrain neurons (MPHN); assay: Calcium flux in mouse primary hindbrain neurons; format: cell-based
Protocol: For calcium imaging, primary hindbrain neurons seeded on 12 mm coverslips were allowed the appropriate time to form structural networks. These cultures were washed with HBSS and loaded with 2.5 μM FURA-2, AM calcium indicator for 45 minutes at room temperature, according to the manufacturer's protocol. Cells were then washed to remove excess indicator and incubated for 30 minutes to allow internalized esters to become de-esterified. 30 ng/ml of osteocalcin was prepared with the control buffer of 1× HBBS supplemented with 10 mM HEPES buffer and 2 mM CaCl2. Using a Zeiss microscope with a perfusion system, coverslips were first perfused with control and osteocalcin. After each stimulation, cells were depolarized with 50 mM KCl to determine the percentage of live cells being imaged. All treatments were recorded using two-photon laser scanning microscopy by Prairie Technologies and analyzed by Z axis profile plotting using ImageJ.
To determine if osteocalcin acts directly on neurons to modulate neurotransmitter synthesis, several types of assays were performed. First, brainstem and midbrain explants from WT and Gprc6a^−/− mice were generated. […] Third, to further confirm that osteocalcin signals in neurons of the hindbrain, calcium flux in MPHN treated with undercarboxylated or carboxylated osteocalcin (FIG. 3F) was measured.

Substance: osteocalcin: Recombinant osteocalcin bacterially produced, cleaved from the GST subunit; completely undercarboxylated at all three sites; full-length mouse osteocalcin (YLGASVPSPDPLEPTREQCELNPACDELSDQYGLKTAYKRIYGITI)
- memory (MWMT and NOR) ([1]; 12- and 16-month-old WT mice): memory was significantly improved
- exploratory and anxiety-like behavior (DLT or EPMT) ([1]; 12 and 16 month-old WT mice): better exploratory behavior and decreased anxiety-like behavior
- calcium fluxes [2]: induced changes in calcium fluxes
